Experimental findings from ChEMBL document CHEMBL5634089, “Design, synthesis and evaluation of 2-pyrimidinylindole derivatives as anti-obesity agents by regulating lipid metabolism” (Eur J Med Chem, 2023) are described below.

Data set [1] relates to 3T3-L1. The experiment in a line: Anti-adipogenic activity in mouse 3T3-L1 cells assessed as lipid-lowering activity at 1 uM measured after 9 days by Oil Red O staining based microplate reader analysis relative to control. In kind it is functional. The note with it: time 9 day.
The subject of data set [2] is 3T3-L1. The experiment in a line: Anti-adipogenic activity in mouse 3T3-L1 cells assessed as lipid-lowering activity measured after 9 days by Oil Red O staining based microplate reader analysis. The data set is classed as functional, cell-based. As to conditions: 3T3-L1, 216 h.
Data set [3] can be described thus: Half life in Sprague-Dawley rat at 2 mg/kg, iv administered for 24 hrs by LC-MS/MS analysis. In kind it is ADME, organism-based. As to conditions: in vivo.
The nature of data set [4]: Cytotoxicity against mouse 3T3-L1 cells assessed as reduction in cell viability incubated for 24 hrs by Sulforhodamine B assay. The data set is classed as toxicity, cell-based. A general note: In SRB staining, fixed cells bind dye roughly in proportion to their protein.
Data set [5] in a line: Therapeutic index, ratio of IC50 for cytotoxicity against mouse 3T3-L1 cells to EC50 for anti-adipogenic in mouse 3T3-L1 cells. In kind it is toxicity, cell-based. As to conditions: read-out: Ratio IC50/EC50.
A short description of data set [6]: AUC (0 to t) in Sprague-Dawley rat at 2 mg/kg, iv administered for 24 hrs by LC-MS/MS analysis. The data set is classed as ADME, organism-based. The note with it: in vivo.
A short description of data set [7]: AUC (0 to infinity) in Sprague-Dawley rat at 2 mg/kg, iv administered for 24 hrs by LC-MS/MS analysis. In kind it is ADME, organism-based. The note with it: in vivo.
Data set [8] can be described thus: MRT (0 to t) in Sprague-Dawley rat at 2 mg/kg, iv administered for 24 hrs by LC-MS/MS analysis. As to conditions: in vivo. The data set is classed as ADME, organism-based.
Data set [9] is described as follows: Apparent volume of distribution during terminal phase in Sprague-Dawley rat at 2 mg/kg, iv administered for 24 hrs by LC-MS/MS analysis. The data set is classed as ADME, organism-based. As to conditions: in vivo.
The nature of data set [10]: Half life in Sprague-Dawley rat at 5 mg/kg, po administered for 24 hrs by LC-MS/MS analysis. In kind it is ADME, organism-based. The note with it: in vivo.
Data set [11] is described as follows: Tmax in Sprague-Dawley rat at 5 mg/kg, po administered for 24 hrs by LC-MS/MS analysis. In kind it is ADME, organism-based. As to conditions: in vivo.
Data set [12] is described as follows: Cmax in Sprague-Dawley rat at 5 mg/kg, po administered for 24 hrs by LC-MS/MS analysis. In kind it is ADME, organism-based. As to conditions: in vivo.
A short description of data set [13]: AUC (0 to t) in Sprague-Dawley rat at 5 mg/kg, po administered for 24 hrs by LC-MS/MS analysis. In kind it is ADME, organism-based. The note with it: in vivo.
Data set [14] in a line: AUC (0 to infinity) in Sprague-Dawley rat at 5 mg/kg, po administered for 24 hrs by LC-MS/MS analysis. In kind it is ADME, organism-based. The note with it: in vivo.
Data set [15] in a line: MRT (0 to t) in Sprague-Dawley rat at 5 mg/kg, po administered for 24 hrs by LC-MS/MS analysis. The data set is classed as ADME, organism-based. The note with it: in vivo.
A short description of data set [16]: Apparent volume of distribution during terminal phase in Sprague-Dawley rat at 5 mg/kg, po administered for 24 hrs by LC-MS/MS analysis. In kind it is ADME, organism-based. The note with it: in vivo, read-out: Vz/F.
Data set [17] is described as follows: Apparent oral clearance in Sprague-Dawley rat at 5 mg/kg, po administered for 24 hrs by LC-MS/MS analysis. The data set is classed as ADME, organism-based. As to conditions: in vivo.
A short description of data set [18]: Oral bioavailability (0 to t) in Sprague-Dawley rat at 5 mg/kg administered for 24 hrs by LC-MS/MS analysis. In kind it is ADME, organism-based. As to conditions: in vivo.
Data set [19] is described as follows: Oral bioavailability (0 to infinity) in Sprague-Dawley rat at 5 mg/kg administered for 24 hrs by LC-MS/MS analysis. In kind it is ADME, organism-based. As to conditions: in vivo.
The nature of data set [20]: Aqueous solubility of compound incubated for 24 hrs by HPLC analysis. The note with it: aqueous medium. In kind it is physicochemical.

≈ marks a conversion by molar mass, not a printed value.

Consider `CC(=O)c1c(-c2nc(O)cc(NCCCN(C)C)n2)[nH]c2ccccc12`, for which, in [1], the Activity is given as -3.1%.
On the same count and under the same terms, then `CC(=O)c1c(-c2ncc(F)c(NCCCN(C)C)n2)[nH]c2ccccc12`, with 58%.
For the compound `CCc1cc(NCCN2CCCC2)nc(-c2[nH]c3ccccc3c2C(C)=O)n1`, the Activity in [1] is reported as 58.5%.
`CC(=O)c1c(-c2nc(NCCN3CCCC3)c3ccccc3n2)[nH]c2ccccc12`: in data set [1], the Activity is 99.5%. Further, the EC50 in data set [2] came out at 45 nM. For the same compound, the half-life is 12.4 h in data set [3] and 6.5 h in data set [10]. Also, the IC50 at 24 h in data set [4] came out at 8490 nM. Besides, in data set [5], the selectivity ratio worked out at 190. In addition, the values for the AUC(0-t) at 24 h in [6] and in data set [13] were 603 ng·h/mL and 574 ng·h/mL, respectively. For the same compound, the AUC(0-inf) in [7] was 749 ng·h/mL; in [14], 616 ng·h/mL. For the same compound, the MRT last at 24 h in [8] stood at 14 h; in data set [15] it was 9.1 h. The Vz/F in [9] came to 47.8 L/kg. For the same compound, in data set [11], the Tmax turned out to be 1.2 h. Besides, the peak level in data set [12] (Cmax) was 63.7 ng/mL. The Vd/F in data set [16] was 77.8 L/kg. In addition, in data set [17], the CL/F was 137 mL/min/kg. Moreover, the figures for the bioavailability in data set [18] and in data set [19] were 38.1% and 32.9%, respectively. The solubility at 24 h in [20] was 8 µg/mL (≈ 20 µM).
On to `CC(=O)c1c(-c2ncc(F)c(NCCN3CCCC3)n2)[nH]c2ccccc12`, for which the Activity in data set [1] was found to be 102.6%. The EC50 in data set [2] was 180 nM. Moreover, the IC50 at 24 h in data set [4] was 37400 nM. The selectivity ratio in [5] is 208.
`CC(=O)c1c(-c2nc3c(c(NCCCN(C)C)n2)CCCC3)[nH]c2ccccc12`: in [1], the Activity came out at 28%.
In the case of `CC(=O)c1c(-c2nc(C)cc(NCCN3CCCC3)n2)[nH]c2ccccc12`, the Activity in data set [1] is 98.3%. Also, in [2], the EC50 worked out at 89 nM. Besides, the IC50 at 24 h in data set [4] is 18000 nM. Also, the selectivity ratio in [5] stood at 202.
In the case of `CC1=C(O)C(=O)C=C2C1=CC=C1[C@@]2(C)CC[C@@]2(C)[C@@H]3C[C@](C)(C(=O)O)CC[C@]3(C)CC[C@]12C` [CELASTROL], in [2], the EC50 is 99 nM. Moreover, the IC50 at 24 h in [4] came out at 730 nM. Besides, the selectivity ratio in data set [5] is 7.
For `CC(=O)c1c(-c2nc(NCCCN(C)C)cc(C(F)(F)F)n2)[nH]c2ccccc12`, the Activity in [1] is reported as 15.5%.
Still for that read-out and setting: then `CC(=O)c1c(-c2nccc(NCCCN(C)C)n2)[nH]c2ccccc12`, with 79.5%; and `CC(=O)c1c(-c2nc3c(c(NCCN4CCCC4)n2)CCCC3)[nH]c2ccccc12`, with 20.5%.
As to `CC(=O)c1c(-c2nccc(NCCN(C)C)n2)[nH]c2ccccc12`, the Activity in data set [1] came to 103.9%. Further, the EC50 in data set [2] is 254 nM. For the same compound, the IC50 at 24 h in [4] came to 28400 nM. For the same compound, in data set [5], the selectivity ratio was found to be 112.
In the case of `CC(=O)c1c(-c2ncc(C)c(NCCCN(C)C)n2)[nH]c2ccccc12`, in [1], the Activity came out at 101.8%. For the same compound, the EC50 in data set [2] came to 127 nM. Besides, the IC50 at 24 h in [4] is 32200 nM. In addition, the selectivity ratio in [5] turned out to be 254.
The matching figures for `CC(=O)c1c(-c2nc(C)cc(NCCCN(C)C)n2)[nH]c2ccccc12`: 99.8%, 225 nM, 33900 nM and 151.
For the compound `CC(=O)c1c(-c2ncc(C)c(NCCN3CCCC3)n2)[nH]c2ccccc12`, the Activity in data set [1] is given as 99.8%. Also, the EC50 in data set [2] came out at 111 nM. Further, the IC50 at 24 h in data set [4] was 23400 nM. Further, in data set [5], the selectivity ratio stood at 212.
In the case of `CCc1cc(NCCCN(C)C)nc(-c2[nH]c3ccccc3c2C(C)=O)n1`, the Activity in data set [1] came to 73.8%.
On the same count and under the same terms, the result for `CC(=O)c1c(-c2nc(NCCCN(C)C)cc(-c3cccnc3)n2)[nH]c2ccccc12` reads 48.2%; that for `CC(=O)c1c(-c2nc(NCCCN(C)C)cc(-c3ccc(C(C)(C)C)cc3)n2)[nH]c2ccccc12`, 20.5%.
As to `CC(=O)c1c(-c2nc3c(c(NCCN(C)C)n2)COC3)[nH]c2ccccc12`, in data set [1], the Activity is listed as 46.9%.
For `CC(=O)c1c(-c2nc3c(c(NCCN(C)C)n2)CNCC3)[nH]c2ccccc12`, in [1], the Activity is 25.1%.
As to `CC(=O)c1c(-c2nc(NCCN(C)C)c3cccnc3n2)[nH]c2ccccc12`, the Activity in [1] amounted to 22.4%.
In the case of `CC(=O)c1c(-c2nc(NCCCN(C)C)c3ncn(C)c3n2)[nH]c2ccccc12`, the Activity in data set [1] is given as 99.9%. In addition, the EC50 in data set [2] was found to be 309 nM. In addition, the IC50 at 24 h in [4] is 57700 nM. The selectivity ratio in data set [5] worked out at 187.
Turning to `COc1cnc(-c2[nH]c3ccccc3c2C(C)=O)nc1NCCCN1CCCC1`, the Activity in [1] was determined as 49.7%.
Consider `CC(=O)c1c(-c2nc(NCCN3CCCC3)cc(-c3ccccc3)n2)[nH]c2ccccc12`, for which the Activity in data set [1] is on record as 5.9%.
As to `CC(=O)c1c(-c2nc(NCCN(C)C)c3ccccc3n2)[nH]c2ccccc12`, in data set [1], the Activity was determined as 100.5%. The EC50 in data set [2] was 78 nM. Moreover, the IC50 at 24 h in data set [4] was 6310 nM. For the same compound, the selectivity ratio in data set [5] worked out at 81.
As to `COc1cnc(-c2[nH]c3ccccc3c2C(C)=O)nc1NCCCN(C)C`, the Activity in data set [1] worked out at 54.4%.
Still for that read-out and setting: the result for `COc1cnc(-c2[nH]c3ccccc3c2C(C)=O)nc1NCCN1CCCC1` reads 48.3%; that for `CC(=O)c1c(-c2nc(NCCCN(C)C)cc(-c3ccccc3)n2)[nH]c2ccccc12`, 26.9%; that for `CC(=O)c1c(-c2nc(NCCN3CCCC3)c3cccnc3n2)[nH]c2ccccc12`, 16.8%.
For `CC(=O)c1c(-c2nc(C)c(C)c(NCCCN(C)C)n2)[nH]c2ccccc12`, in data set [1], the Activity turned out to be 92.1%. Moreover, the half-maximal effective concentration (EC50) in data set [2] turned out to be 509 nM. Besides, the IC50 at 24 h in [4] came to 30400 nM. In data set [5], the selectivity ratio was 60.
For `CC(=O)c1c(-c2nc(NCCN3CCCC3)cc(C(F)(F)F)n2)[nH]c2ccccc12`, the Activity in data set [1] amounted to 54.4%.
As for `CC(=O)c1c(-c2nc(NCCN3CCCC3)c3ncn(C)c3n2)[nH]c2ccccc12`, in data set [1], the Activity stood at 99.5%. In addition, the EC50 in data set [2] was determined as 295 nM. Also, the IC50 at 24 h in data set [4] worked out at 65500 nM. Besides, the selectivity ratio in data set [5] was 222.

As usually defined, the EC50 is the concentration giving half of the maximal effect. Usually half-life stands for the time in which the quantity being followed falls by half. Lower therefore signals fast loss. A word on the IC50: it is the concentration needed to halve the response being measured. Usually AUC(0-t) stands for exposure summed from dosing to a finite time, without extrapolation to infinity. Read a high AUC(0-t) as high exposure. As a reminder, the AUC(0-inf) is total exposure, with the tail of the curve extrapolated. Broadly, the MRT last is the average time that molecules of a dose stay in the body. As a reminder, the Tmax is the time from dosing to the highest level. A word on the Cmax: it is the peak of the concentration-time curve. The term CL/F denotes the apparent clearance, not corrected for the fraction that reaches the circulation. For orientation: bioavailability means dose-corrected exposure relative to a reference, in per cent. As a reminder, the solubility is how much of the substance goes into solution per volume. A lower solubility goes with little dissolved substance.
